According to BigSolDB 2.1:

C#C[C@]1(O)CC[C@H]2[C@@H]3CCC4=CC(=O)CC[C@@H]4[C@H]3C(=C)C[C@@]21CC
solubility (mole fraction)
Conditions	in DMF	in THF	in acetone	in ethanol	in ethyl acetate	in isopropanol	in methyl acetate	in n-butanol	in n-propanol	in water
273.15 K	0.0757	0.0739	0.012	0.0017	0.0189	0.00463	0.0104	0.00421	0.00452	1.38e-05
278.15 K	0.0792	0.0891	0.0133	0.00209	0.022	0.00545	0.0119	0.00514	0.00514	1.64e-05
283.15 K	0.0825	0.106	0.0148	0.00249	0.0249	0.00633	0.0135	0.00615	0.00585	1.92e-05
288.15 K	0.0865	0.125	0.0165	0.00293	0.0291	0.00731	0.0153	0.00742	0.00657	2.24e-05
293.15 K	0.0888	0.148	0.0184	0.00343	0.0338	0.00851	0.017	0.00904	0.00753	2.6e-05
298.15 K	0.0965	0.173	0.0198	0.00412	0.0383	0.00994	0.019	0.0109	0.00865	3.1e-05
303.15 K	0.0974	0.2	0.0224	0.00494	0.043	0.0115	0.0211	0.0126	0.00974	3.65e-05
308.15 K	0.101	0.223	0.0248	0.00593	0.0476	0.0132	0.0229	0.0148	0.0112	4.25e-05
313.15 K	0.105	0.263	0.0273	0.00695	0.0539	0.0154	0.025	0.0171	0.0124	4.91e-05
318.15 K	0.109	0.299	0.03	0.00817	0.059	0.0178	0.0271	0.0198	0.0142	5.62e-05
323.15 K	0.115	0.332	0.0335	0.00967	0.0648	0.0209	0.0294	0.0227	0.0159	6.37e-05
